# According to US9732080B2 (Vertex Pharmaceuticals Incorporated, priority 2006, dated 2017):
# Target: T1, ΔF508-CFTR (Homo sapiens, UniProt P13569, DEL508-508)
# T1 construct: expressed in transfected cells
# Assay: Membrane potential optical assay, identification of correction compounds (ΔF508-CFTR correction)
# Type: cell-based
# Settings: PercentActivity; NIH3T3 mouse fibroblasts stably expressing ΔF508-CFTR; 16-24 hrs with compound; read-out: Binned Max Efficacy
# Source text: Membrane potential optical methods for assaying ΔF508-CFTR modulation properties of compounds.
# The assay utilizes fluorescent voltage sensing dyes to measure changes in membrane potential using a fluorescent plate reader (e.g., FLIPR III, Molecular Devices, Inc.) as a readout for increase in functional ΔF508-CFTR in NIH 3T3 cells. The driving force for the response is the creation of a chloride ion gradient in conjunction with channel activation by a single liquid addition step after the cells have previously been treated with compounds and subsequently loaded with a voltage sensing dye.
# To identify small molecules that correct the trafficking defect associated with ΔF508-CFTR; a single-addition HTS assay format was developed. Assay Plates containing cells are incubated for ˜2-4 hours in tissue culture incubator at 37° C., 5% CO2, 90% humidity. Cells are then ready for compound exposure after adhering to the bottom of the assay plates.
# The cells were incubated in serum-free medium for 16-24 firs in tissue culture incubator at 37° C., 5% CO2, 90% humidity in the presence or absence (negative control) of test compound. The cells were subsequently rinsed 3× with Krebs Ringers solution and loaded with a voltage sensing redistribution dye. To activate ΔF508-CFTR, 10 μM forskolin and the CFTR potentiator, genistein (20 μM), were added along with Cl^−-free medium to each well. The addition of Cl^−-free medium promoted Cl^− efflux in response to ΔF508-CFTR activation and the resulting membrane depolarization was optically monitored using voltage sensor dyes.
# Bath Solution #1: (in mM) NaCl 160, KCl 4.5, CaCl2 2, MgCl2 1, HEPES 10, pH 7.4 with NaOH.
# Chloride-free bath solution: Chloride salts in Bath Solution #1 are substituted with gluconate salts.
# NIH3T3 mouse fibroblasts stably expressing ΔF508-CFTR are used for optical measurements of membrane potential. The cells are maintained at 37° C. in 5% CO2 and 90% humidity in Dulbecco's modified Eagle's medium supplemented with 2 mM glutamine, 10% fetal bovine serum, 1×NEAA, β-ME, 1× pen/strep, and 25 mM HEPES in 175 cm^2 culture flasks. For all optical assays, the cells were seeded at ˜20,000/well in 384-well matrigel-coated plates and cultured for 2 hrs at 37° C. before culturing at 27° C. for 24 hrs. for the potentiator assay. For the correction assays, the cells are cultured at 27° C. or 37° C. with and without compounds for 16-24 hours.
# T1 sequence (P13569 with tags, fused parts or gaps DEL508-508): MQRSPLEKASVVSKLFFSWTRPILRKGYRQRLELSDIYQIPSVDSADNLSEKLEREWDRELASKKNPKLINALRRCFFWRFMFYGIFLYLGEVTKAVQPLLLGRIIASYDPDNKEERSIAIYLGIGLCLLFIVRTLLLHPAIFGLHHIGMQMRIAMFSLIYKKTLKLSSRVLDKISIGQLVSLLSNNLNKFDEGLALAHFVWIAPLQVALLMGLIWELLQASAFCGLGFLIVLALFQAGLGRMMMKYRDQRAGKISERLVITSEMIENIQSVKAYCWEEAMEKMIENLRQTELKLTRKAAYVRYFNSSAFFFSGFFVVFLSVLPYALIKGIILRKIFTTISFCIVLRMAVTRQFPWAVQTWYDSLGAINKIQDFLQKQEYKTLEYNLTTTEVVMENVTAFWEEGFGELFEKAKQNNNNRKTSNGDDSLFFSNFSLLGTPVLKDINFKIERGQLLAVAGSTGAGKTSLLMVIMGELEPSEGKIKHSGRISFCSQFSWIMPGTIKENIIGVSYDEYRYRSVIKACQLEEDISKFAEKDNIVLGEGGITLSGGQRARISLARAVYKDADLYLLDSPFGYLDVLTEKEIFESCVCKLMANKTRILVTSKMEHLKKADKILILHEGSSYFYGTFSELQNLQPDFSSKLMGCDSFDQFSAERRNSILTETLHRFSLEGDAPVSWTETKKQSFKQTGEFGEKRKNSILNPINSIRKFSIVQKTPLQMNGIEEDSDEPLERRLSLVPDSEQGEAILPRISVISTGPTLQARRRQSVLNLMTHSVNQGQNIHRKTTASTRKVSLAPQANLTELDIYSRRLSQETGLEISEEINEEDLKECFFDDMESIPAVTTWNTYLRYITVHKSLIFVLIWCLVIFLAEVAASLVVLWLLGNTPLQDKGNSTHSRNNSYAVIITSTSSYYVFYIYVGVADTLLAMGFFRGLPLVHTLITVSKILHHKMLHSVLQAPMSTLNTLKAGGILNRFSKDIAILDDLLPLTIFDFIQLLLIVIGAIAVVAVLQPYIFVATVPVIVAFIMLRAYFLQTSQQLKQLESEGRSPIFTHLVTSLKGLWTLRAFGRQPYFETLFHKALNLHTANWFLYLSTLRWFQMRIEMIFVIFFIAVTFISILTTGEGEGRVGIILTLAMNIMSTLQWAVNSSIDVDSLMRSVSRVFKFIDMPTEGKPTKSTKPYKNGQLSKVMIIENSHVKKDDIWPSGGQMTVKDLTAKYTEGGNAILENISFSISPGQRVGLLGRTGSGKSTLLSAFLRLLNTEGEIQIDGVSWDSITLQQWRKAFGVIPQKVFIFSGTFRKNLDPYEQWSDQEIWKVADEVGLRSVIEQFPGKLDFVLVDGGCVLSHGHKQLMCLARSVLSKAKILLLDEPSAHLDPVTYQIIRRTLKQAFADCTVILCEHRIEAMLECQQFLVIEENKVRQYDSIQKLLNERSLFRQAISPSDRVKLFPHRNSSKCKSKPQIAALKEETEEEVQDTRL
row,SMILES,Emax [%]
1,"O=C(Nc1ccc2cc[nH]c2n1)C1(c2ccc3c(c2)OCO3)CC1 [Compound 1, 1-(benzo[d][1,3]dioxol-5-yl)-N-(1H-pyrrolo[2,3-b]pyridin-6-yl)cyclopropanecarboxamide]",> 100
2,CC(C)(C)c1cc2cc(NC(=O)C3(c4ccc5c(c4)OCO5)CC3)cnc2[nH]1 [Compound 6],> 100
3,CC(C)(C)c1cc2cc(NC(=O)C3(c4ccc5c(c4)OCO5)CC3)ncc2[nH]1 [Compound 8],25 to 100
4,"CCc1cc2cc(NC(=O)C3(c4ccc5c(c4)OC(F)(F)O5)CC3)ncc2[nH]1 [Compound 9, 1-(2,2-difluorobenzo[d][1,3]dioxol-5-yl)-N-(2-ethyl-1H-pyrrolo[2,3-c]pyridin-5-yl)cyclopropanecarboxamide]",> 100
5,"CC1(c2cc3cc(NC(=O)C4(c5ccc6c(c5)OC(F)(F)O6)CC4)ncc3[nH]2)CC1 [Compound 10, 1-(2,2-difluorobenzo[d][1,3]dioxol-5-yl)-N-(2-(1-methylcyclopropyl)-1H-pyrrolo[2,3-c]pyridin-5-yl)cyclopropanecarboxamide]",> 100
6,"O=C(Nc1cc2cc(C3CCC3)[nH]c2cn1)C1(c2ccc3c(c2)OC(F)(F)O3)CC1 [Compound 11, N-(2-cyclobutyl-1H-pyrrolo[2,3-c]pyridin-5-yl)-1-(2,2-difluorobenzo[d][1,3]dioxol-5-yl)cyclopropanecarboxamide]",> 100
7,"CC(C)(C)c1cc2cc(NC(=O)C3(c4ccc5c(c4)OC(F)(F)O5)CC3)cnc2[nH]1 [Compound 13, N-(2-tert-butyl-1H-pyrrolo[2,3-b]pyridin-5-yl)-1-(2,2-difluorobenzo[d][1,3]dioxol-5-yl)cyclopropanecarboxamide]",> 100
8,"CC(C)(C)c1cc2cc(NC(=O)C3(c4ccc5c(c4)OC(F)(F)O5)CC3)ncc2[nH]1 [Compound 14, N-(2-tert-butyl-1H-pyrrolo[2,3-c]pyridin-5-yl)-1-(2,2-difluorobenzo[d][1,3]dioxol-5-yl)cyclopropanecarboxamide]",> 100
9,"CC(C)(C)c1cc2cc(NC(=O)C3(c4ccc5c(c4)OC(F)(F)O5)CC3)ncc2n1CCO [Compound 15, N-(2-tert-butyl-1-(2-hydroxyethyl)-1H-pyrrolo[2,3-c]pyridin-5-yl)-1-(2,2-difiuorobenzo[d][1,3]dioxol-5-yl)cyclopropanecarboxamide]",> 100

# More lines, now with the values ahead:
row,Emax [%],SMILES
1,25 to 100,"COc1ccc(C2(C(=O)Nc3ccc4[nH]c(C(C)(C)C)cc4n3)CC2)cc1 [Compound 2, N-(2-tert-butyl-1H-pyrrolo[3,2-b]pyridin-5-yl)-1-(4-methoxyphenyl)cyclopropanecarboxamide]"
2,25 to 100,"COc1ccc(C2(C(=O)Nc3cnc4[nH]c(C(C)(C)C)cc4c3)CC2)cc1 [Compound 3, N-(2-tert-butyl-1H-pyrrolo[2,3-b]pyridin-5-yl)-1-(4-methoxyphenyl)cyclopropanecarboxamide]"
3,25 to 100,"COc1cccc(C2(C(=O)Nc3ccc4[nH]c(C(C)(C)C)cc4n3)CC2)c1 [Compound 4, N-(2-tert-butyl-1H-pyrrolo[3,2-b]pyridin-5-yl)-1-(3-methoxyphenyl)cyclopropanecarboxamide]"
4,25 to 100,COc1cccc(C2(C(=O)Nc3cnc4[nH]c(C(C)(C)C)cc4c3)CC2)c1 [Compound 5]
5,25 to 100,CC(C)(C)c1cc2nc(NC(=O)C3(c4ccc5c(c4)OCO5)CC3)ccc2[nH]1 [Compound 7]
6,> 100,"CC(C)(C)c1cc2nc(NC(=O)C3(c4ccc5c(c4)OC(F)(F)O5)CC3)ccc2[nH]1 [Compound 12, N-(2-tert-butyl-1H-pyrrolo[3,2-b]pyridin-5-yl)-1-(2,2-difluorobenzo[d][1,3]dioxol-5-yl)cyclopropanecarboxamide]"
